{"source": "patent US20240199598A1", "about": "(MITOIMMUNE THERAPEUTICS INC., priority 2021, published 2024)", "key": {"[1]": {"test": "pKa, UV-metric method", "format": "physicochemical", "description": "As shown in the following Table 2, each combination of counter ions and solvents were given a batch number."}, "[2]": {"test": "Physicochemical stability test of free form and 5 salts (60° C., 40° C./75% humidity, light)", "details": "for Final purity: HPLC", "description": "In the case of a light stability test, the vial was stored in a light stability test chamber while being not closed with a lid, and exposed to a total illuminance of 1.2 million lux-hr. A vial light-shielded with aluminum foil was used as an experimental control (Dark control). For stability assessment, state assessment by visual observation, purity assessment using HPLC, and crystalline form assessment using XRPD were conducted, and results thereof are shown in Table 7. […] In FIGS. 19 to 30, “Light” represents light irradiation condition results."}, "[3]": {"test": "Solubility of compound of Chemical Formula 1 in various solvents", "format": "physicochemical", "description": "Very low solubility in various solvents adversely affects pharmaceutical development that requires the production of a finished product in a completely dissolved state."}, "[4]": {"test": "Oral administration pharmacokinetic test using mice"}, "[5]": {"details": "1.2 million lux-hr, listed as Free form of compound 1"}, "[6]": {"details": "40° C./75% RH, 1 w, listed as Free form of compound 1"}, "[7]": {"details": "60° C., 1 w, listed as Free form of compound 1"}, "[8]": {"details": "Dark control, listed as Free form of compound 1"}}, "note": "Where two headings read alike, the source gives them in different places."}
{"molecule": "O=S1(=O)CCN(Cc2cc(NC3CCOCC3)c3[nH]c(-c4ccccc4)cc3c2)CC1", "note": "[compound of Chemical Formula 1, 5-[(1,1-dioxido-4-thiomorpholinyl)methyl]-2-phenyl-N-(tetrahydro-2H-pyran-4-yl)-1H-indol-7-amine]", "values": [{"measurement": "pKa", "setting": "[1]", "value": 4.5}, {"measurement": "Appearance", "setting": "[2]; 1.2 million lux-hr (light stability), listed as Free form of compound 1", "value": "White powder"}, {"measurement": "Final purity", "setting": "[2]; [5]", "value": 99.89, "unit": "%"}, {"measurement": "Assay", "setting": "[2]; [5]", "value": 107.41, "unit": "%"}, {"measurement": "Purity change", "setting": "[2]; [5]", "value": "+0.13%"}, {"measurement": "XRPD patterns", "setting": "[2]; [5]", "value": "Pattern A"}, {"measurement": "Final purity", "setting": "[2]; [6]", "value": 99.95, "unit": "%"}, {"measurement": "Assay", "setting": "[2]; [6]", "value": 110.59, "unit": "%"}, {"measurement": "Purity change", "setting": "[2]; [6]", "value": "+0.19%"}, {"measurement": "XRPD patterns", "setting": "[2]; [6]", "value": "Pattern A"}, {"measurement": "Chemical stability (purity change %/1 w), 40° C./75% RH", "setting": "[2]; 40° C./75% RH, 1 w, summary Table 9, listed as Free form of compound of Chemical Formula 1", "value": 0.19, "unit": "%"}, {"measurement": "Final purity", "setting": "[2]; [7]", "value": 99.94, "unit": "%"}, {"measurement": "Assay", "setting": "[2]; [7]", "value": 105.89, "unit": "%"}, {"measurement": "Purity change", "setting": "[2]; [7]", "value": "+0.18%"}, {"measurement": "XRPD patterns", "setting": "[2]; [7]", "value": "Pattern A"}, {"measurement": "Chemical stability (purity change %/1 w), 60° C.", "setting": "[2]; 60° C., 1 w, summary Table 9, listed as Free form of compound of Chemical Formula 1", "value": 0.18, "unit": "%"}, {"measurement": "Appearance", "setting": "[2]; Dark control (light-shielded vial)", "value": "White powder"}, {"measurement": "Final purity", "setting": "[2]; [8]", "value": 99.94, "unit": "%"}, {"measurement": "Assay", "setting": "[2]; [8]", "value": 109.40, "unit": "%"}, {"measurement": "Purity change", "setting": "[2]; [8]", "value": "+0.18%"}, {"measurement": "XRPD patterns", "setting": "[2]; [8]", "value": "Pattern A"}, {"measurement": "Chemical stability (purity change %/1 w), Light stability", "setting": "[2]; light stability, summary Table 9, listed as Free form of compound of Chemical Formula 1", "value": 0.13, "unit": "%"}, {"measurement": "solubility", "setting": "[3]; Heptane, 25° C.", "value": "<LOQ"}, {"measurement": "solubility", "setting": "[3]; Heptane, 50° C.", "value": "<LOQ"}, {"measurement": "solubility", "setting": "[3]; Water, 25° C., read-out: Solubility", "value": 1, "unit": "µg/mL"}, {"measurement": "solubility", "setting": "[3]; Water, 50° C., read-out: Solubility", "value": 46, "unit": "µg/mL"}, {"measurement": "solubility", "setting": "[3]; aqueous with cosolvent or surfactant or cyclodextrin, Acetic acid-water (1:1), 25° C., read-out: Solubility", "value": 52800, "unit": "µg/mL"}, {"measurement": "solubility", "setting": "[3]; aqueous with cosolvent or surfactant or cyclodextrin, Acetic acid-water (1:1), 50° C., read-out: Solubility", "value": 75600, "unit": "µg/mL"}, {"measurement": "solubility", "setting": "[3]; aqueous with cosolvent or surfactant or cyclodextrin, Acetone-water (1:2), 25° C., read-out: Solubility", "value": 80, "unit": "µg/mL"}, {"measurement": "solubility", "setting": "[3]; aqueous with cosolvent or surfactant or cyclodextrin, Acetone-water (1:2), 50° C., read-out: Solubility", "value": 160, "unit": "µg/mL"}, {"measurement": "solubility", "setting": "[3]; aqueous with cosolvent or surfactant or cyclodextrin, MeOH/water = 1:1 (v/v), 25° C., read-out: Solubility", "value": 30, "unit": "µg/mL"}, {"measurement": "solubility", "setting": "[3]; aqueous with cosolvent or surfactant or cyclodextrin, MeOH/water = 1:1 (v/v), 50° C., read-out: Solubility", "value": 80, "unit": "µg/mL"}, {"measurement": "solubility", "setting": "[3]; organic solvent or mixture, 1-Butanol, 25° C., read-out: Solubility", "value": 650, "unit": "µg/mL"}, {"measurement": "solubility", "setting": "[3]; organic solvent or mixture, 1-Butanol, 50° C., read-out: Solubility", "value": 1000, "unit": "µg/mL"}, {"measurement": "solubility", "setting": "[3]; organic solvent or mixture, 2-Methyltetrahydrofuran (2-MeTHF), 25° C., read-out: Solubility", "value": 2780, "unit": "µg/mL"}, {"measurement": "solubility", "setting": "[3]; organic solvent or mixture, 2-Methyltetrahydrofuran (2-MeTHF), 50° C., read-out: Solubility", "value": 3410, "unit": "µg/mL"}, {"measurement": "solubility", "setting": "[3]; organic solvent or mixture, Acetone, 25° C., read-out: Solubility", "value": 5290, "unit": "µg/mL"}, {"measurement": "solubility", "setting": "[3]; organic solvent or mixture, Acetone, 50° C., read-out: Solubility", "value": 17500, "unit": "µg/mL"}, {"measurement": "solubility", "setting": "[3]; organic solvent or mixture, Acetonitrile (ACN), 25° C., read-out: Solubility", "value": 3090, "unit": "µg/mL"}, {"measurement": "solubility", "setting": "[3]; organic solvent or mixture, Acetonitrile (ACN), 50° C., read-out: Solubility", "value": 4040, "unit": "µg/mL"}, {"measurement": "solubility", "setting": "[3]; organic solvent or mixture, Chloroform (CHCl3), 25° C., read-out: Solubility", "value": 4700, "unit": "µg/mL"}, {"measurement": "solubility", "setting": "[3]; organic solvent or mixture, Chloroform (CHCl3), 50° C., read-out: Solubility", "value": 4620, "unit": "µg/mL"}, {"measurement": "solubility", "setting": "[3]; organic solvent or mixture, Dimethyl sulfoxide (DMSO), 25° C., read-out: Solubility", "value": 43400, "unit": "µg/mL"}, {"measurement": "solubility", "setting": "[3]; organic solvent or mixture, Dimethyl sulfoxide (DMSO), 50° C., read-out: Solubility", "value": 238000, "unit": "µg/mL"}, {"measurement": "solubility", "setting": "[3]; organic solvent or mixture, Ethanol (EtOH), 25° C., read-out: Solubility", "value": 1410, "unit": "µg/mL"}, {"measurement": "solubility", "setting": "[3]; organic solvent or mixture, Ethanol (EtOH), 50° C., read-out: Solubility", "value": 1080, "unit": "µg/mL"}, {"measurement": "solubility", "setting": "[3]; organic solvent or mixture, Ethyl acetate (EtOAc), 25° C., read-out: Solubility", "value": 1360, "unit": "µg/mL"}, {"measurement": "solubility", "setting": "[3]; organic solvent or mixture, Ethyl acetate (EtOAc), 50° C., read-out: Solubility", "value": 1860, "unit": "µg/mL"}, {"measurement": "solubility", "setting": "[3]; organic solvent or mixture, Isopropanol (IPA), 25° C., read-out: Solubility", "value": 320, "unit": "µg/mL"}, {"measurement": "solubility", "setting": "[3]; organic solvent or mixture, Isopropanol (IPA), 50° C., read-out: Solubility", "value": 540, "unit": "µg/mL"}, {"measurement": "solubility", "setting": "[3]; organic solvent or mixture, Isopropyl acetate (iPrOAc), 25° C., read-out: Solubility", "value": 710, "unit": "µg/mL"}, {"measurement": "solubility", "setting": "[3]; organic solvent or mixture, Isopropyl acetate (iPrOAc), 50° C., read-out: Solubility", "value": 910, "unit": "µg/mL"}, {"measurement": "solubility", "setting": "[3]; organic solvent or mixture, Methanol (MeOH), 25° C., read-out: Solubility", "value": 590, "unit": "µg/mL"}, {"measurement": "solubility", "setting": "[3]; organic solvent or mixture, Methanol (MeOH), 50° C., read-out: Solubility", "value": 1150, "unit": "µg/mL"}, {"measurement": "solubility", "setting": "[3]; organic solvent or mixture, Methyl ethyl ketone (MEK), 25° C., read-out: Solubility", "value": 6080, "unit": "µg/mL"}, {"measurement": "solubility", "setting": "[3]; organic solvent or mixture, Methyl ethyl ketone (MEK), 50° C., read-out: Solubility", "value": 8120, "unit": "µg/mL"}, {"measurement": "solubility", "setting": "[3]; organic solvent or mixture, Methyl isobutyl ketone (MIBK), 25° C., read-out: Solubility", "value": 2100, "unit": "µg/mL"}, {"measurement": "solubility", "setting": "[3]; organic solvent or mixture, Methyl isobutyl ketone (MIBK), 50° C., read-out: Solubility", "value": 2820, "unit": "µg/mL"}, {"measurement": "solubility", "setting": "[3]; organic solvent or mixture, Methyl tert-butyl ether (MTBE), 25° C., read-out: Solubility", "value": 60, "unit": "µg/mL"}, {"measurement": "solubility", "setting": "[3]; organic solvent or mixture, Methyl tert-butyl ether (MTBE), 50° C., read-out: Solubility", "value": 70, "unit": "µg/mL"}, {"measurement": "solubility", "setting": "[3]; organic solvent or mixture, N,N-dimethylformamide (DMF), 50° C., read-out: Solubility", "value": 333000, "unit": "µg/mL"}, {"measurement": "solubility", "setting": "[3]; organic solvent or mixture, N-methyl pyrrolidone (NMP), 25° C., read-out: Solubility", "value": 160000, "unit": "µg/mL"}, {"measurement": "solubility", "setting": "[3]; organic solvent or mixture, N-methyl pyrrolidone (NMP), 50° C., read-out: Solubility", "value": 192000, "unit": "µg/mL"}, {"measurement": "solubility", "setting": "[3]; organic solvent or mixture, Tetrahydrofuran (THF), 25° C., read-out: Solubility", "value": 17400, "unit": "µg/mL"}, {"measurement": "solubility", "setting": "[3]; organic solvent or mixture, Tetrahydrofuran (THF), 50° C., read-out: Solubility", "value": 16300, "unit": "µg/mL"}, {"measurement": "solubility", "setting": "[3]; organic solvent or mixture, Toluene, 25° C., read-out: Solubility", "value": 20, "unit": "µg/mL"}, {"measurement": "solubility", "setting": "[3]; organic solvent or mixture, Toluene, 50° C., read-out: Solubility", "value": 20, "unit": "µg/mL"}, {"measurement": "Cmax", "setting": "[4]; mice, oral, 10 mg/kg, listed as Free", "value": 1015.2, "unit": "ng/mL"}, {"measurement": "t½", "setting": "[4]; mice, oral, 10 mg/kg, listed as free form", "value": 72, "unit": "min"}, {"measurement": "AUClast", "setting": "[4]; mice, oral, 10 mg/kg, listed as free form of the compound of Chemical Formula 1, 10 mg/kg", "value": 3603.9, "unit": "ng·h/mL"}, {"measurement": "Pharmacokinetic test, t½", "setting": "[4]; mice, oral, summary Table 9, listed as Free form of compound of Chemical Formula 1", "value": 60, "unit": "min"}, {"measurement": "Tmax", "setting": "[4]; mouse, in vivo, po, 10 mg/kg", "value": 30, "unit": "min"}]}
